Some test systems named below: COLO 205 colon; HCC-2998 colon; NCI-H522 lung; OVCAR-3 ovarian; OVCAR-4 ovarian; SF-268 CNS; SK-MEL-2 melanoma; SK-OV-3 ovarian; SW-620 colon; ACHN renal.
What all share (test): growth of human tumour cells (NCI), 48 h

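These data come from cells grown in 96-well plates and exposed to compound for 48 hours at five concentrations. GI50: concentration for 50% inhibition of growth. TGI: total growth inhibition.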

Turning to `O=C1CC(N2C(=O)/C(=C/C(Cl)=C\c3ccc([N+](=O)[O-])cc3)SC2=S)C(=O)N1c1ccc(Cl)cc1` (stereo unspecified), the GI50 was 1.4 µM with COLO 205 colon; 1.59 µM in the assay with HCC-2998 colon; 1.73 µM in the assay with NCI-H522 lung; 0.721 µM in the assay with OVCAR-3 ovarian; 5.55 µM in the assay with OVCAR-4 ovarian; 3.07 µM with SF-268 CNS. Further, the GI50 in the assay on SK-MEL-2 melanoma is 3.12 µM; in the assay on SK-OV-3 ovarian, 3.56 µM; in the assay on SW-620 colon it was 0.508 µM. For the same compound, the TGI with COLO 205 colon was 3.76 µM; with HCC-2998 colon, 3.03 µM; with NCI-H522 lung, 4.36 µM; in the assay with OVCAR-3 ovarian it was 2.62 µM; in the assay with OVCAR-4 ovarian it was over 100 µM; in the assay on SF-268 CNS, over 100 µM. The results for the TGI with SK-MEL-2 melanoma, with SK-OV-3 ovarian and in the assay with SW-620 colon were 32.1 µM, over 100 µM and 3.89 µM, respectively.
For `CCn1cc(C(=O)O)c(=O)c2cc(F)c(N3CCN(Cn4c(O)c(N=NC(=O)c5ccncc5)c5cc(Cl)ccc54)CC3)cc21`, the TGI in the assay with ACHN renal was over 100 µM; in the assay on COLO 205 colon, over 100 µM; in the assay on HCC-2998 colon it was over 100 µM; in the assay on NCI-H522 lung it was 63.6 µM; with OVCAR-3 ovarian, over 100 µM; in the assay on OVCAR-4 ovarian, over 100 µM. Moreover, the TGI in the assay on SF-268 CNS was over 100 µM; in the assay on SK-MEL-2 melanoma, 60.9 µM; in the assay on SK-OV-3 ovarian, 61.3 µM; in the assay with SW-620 colon it was over 100 µM.
Take `C=CCOCCCC(=O)C(=[N+]=[N-])C(=O)OC`: the TGI in the assay with ACHN renal, in the assay with COLO 205 colon, in the assay on HCC-2998 colon, in the assay with NCI-H522 lung, in the assay with OVCAR-3 ovarian and in the assay on OVCAR-4 ovarian was over 100 µM each time. Moreover, the TGI in the assay with SF-268 CNS, in the assay with SK-MEL-2 melanoma, with SK-OV-3 ovarian and in the assay on SW-620 colon was over 100 µM throughout.
Take `OC(c1ccc(-c2ccccc2)cc1)(c1ccc(-c2ccccc2)cc1)c1ccc(-c2ccccc2)cc1`: the TGI in the assay with ACHN renal, in the assay with COLO 205 colon, with NCI-H522 lung, in the assay with OVCAR-3 ovarian, in the assay on OVCAR-4 ovarian and in the assay with SF-268 CNS was over 100 µM throughout. Besides, in the assay on SK-OV-3 ovarian, the TGI is over 100 µM.
Consider `CCCCC1Cc2cc(OC)ccc2-c2nc3cc(OC)ccc3n21` (stereo unspecified) (tested in a mixture with another compound), for which the TGI in the assay with ACHN renal was found to be 28.4 µM; in the assay on COLO 205 colon it was 18.7 µM; in the assay on NCI-H522 lung it was 21.1 µM; with OVCAR-3 ovarian, 29.8 µM; with OVCAR-4 ovarian it was 18.9 µM; with SF-268 CNS it was 33.5 µM. The TGI with SK-OV-3 ovarian stood at 26.4 µM; in the assay with SW-620 colon it was 27.8 µM.
Take `N=C(N)C(N=Nc1ccccc1)C(=N)N` (stereo unspecified): the TGI with ACHN renal is over 100 µM; in the assay with COLO 205 colon it was over 100 µM; with HCC-2998 colon, 32.9 µM; in the assay on NCI-H522 lung, over 100 µM; in the assay with OVCAR-3 ovarian, over 100 µM; in the assay with OVCAR-4 ovarian, over 100 µM. The TGI in the assay with SF-268 CNS is over 100 µM; in the assay with SK-MEL-2 melanoma, 91.9 µM; with SK-OV-3 ovarian it was over 100 µM; in the assay on SW-620 colon, over 100 µM.
Take `O=C(O)C(Cc1ccccc1)N1C(=O)c2ccccc2C1=O` (stereo unspecified): the TGI with ACHN renal, in the assay on COLO 205 colon, in the assay with HCC-2998 colon, in the assay on NCI-H522 lung, in the assay on OVCAR-3 ovarian and with OVCAR-4 ovarian was over 100 µM in each case. In addition, the TGI was over 100 µM in the assay on SF-268 CNS, over 100 µM in the assay on SK-MEL-2 melanoma, over 100 µM with SK-OV-3 ovarian and 84.9 µM with SW-620 colon.
Regarding `Cc1cc(C)n(C(=O)C(C)Sc2nnc(SC(C)C(=O)n3nc(C)cc3C)s2)n1` (stereo unspecified), the TGI in the assay on ACHN renal, in the assay on COLO 205 colon, with HCC-2998 colon, with OVCAR-3 ovarian, in the assay on OVCAR-4 ovarian and in the assay with SF-268 CNS was over 100 µM each time. Also, the TGI in the assay with SK-MEL-2 melanoma, in the assay on SK-OV-3 ovarian and in the assay on SW-620 colon was over 100 µM throughout.
With `O=C1CS(=O)(=O)C(c2cccc(Oc3ccccc3)c2)N1c1cccc(Cl)c1Cl` (stereo unspecified), the TGI was determined as 43.6 µM in the assay with ACHN renal; 67.8 µM with COLO 205 colon; 39.4 µM in the assay on NCI-H522 lung; 57.3 µM in the assay on OVCAR-3 ovarian; 78.9 µM in the assay with OVCAR-4 ovarian; 55.2 µM in the assay on SF-268 CNS. Moreover, the TGI was 40.1 µM in the assay on SK-MEL-2 melanoma, over 100 µM in the assay with SK-OV-3 ovarian and over 100 µM with SW-620 colon.
Regarding `O=C1CCC(NC(=O)Cc2ccc(O)cc2)C(=O)N1` (stereo unspecified), the TGI with ACHN renal, in the assay on COLO 205 colon, in the assay with NCI-H522 lung, in the assay with OVCAR-3 ovarian, with OVCAR-4 ovarian and with SF-268 CNS was over 2500 µM each time. Further, the TGI in the assay on SK-OV-3 ovarian and in the assay on SW-620 colon was over 2500 µM in each case.
As to `C=C1C(C2(C)C=CC(=O)OC3(C)COC(=O)CC32)C(OC=O)C(OC(=O)C(O)C(C)CC)C2(C)C(c3ccoc3)CC(OC(C)=O)C12O` (stereo unspecified), the TGI in the assay with ACHN renal, in the assay with COLO 205 colon, in the assay with HCC-2998 colon, with NCI-H522 lung, with OVCAR-3 ovarian and in the assay on SF-268 CNS was over 100 µM in each case. The TGI in the assay on SK-MEL-2 melanoma, in the assay with SK-OV-3 ovarian and with SW-620 colon was over 100 µM each time.
Regarding `O=C1c2scnc2-c2nccc3c2c1nc1ccccc13`, the TGI was 2.15 µM in the assay on ACHN renal; 2.68 µM with COLO 205 colon; 2.48 µM with HCC-2998 colon; over 100 µM with NCI-H522 lung; over 100 µM in the assay with OVCAR-3 ovarian; 2.92 µM in the assay with OVCAR-4 ovarian. The TGI in the assay with SF-268 CNS was over 100 µM; with SK-MEL-2 melanoma, 4.34 µM; in the assay on SK-OV-3 ovarian it was 23.4 µM.
For `CO[C@@]12C[C@@H](CNC(=O)c3cc(Br)c[nH]3)O[C@@H]1NC(=O)N2`, the TGI with ACHN renal, in the assay on COLO 205 colon, with NCI-H522 lung, in the assay on OVCAR-3 ovarian, in the assay on OVCAR-4 ovarian and with SF-268 CNS was over 100 µM in each case. Further, the TGI with SK-MEL-2 melanoma, in the assay on SK-OV-3 ovarian and with SW-620 colon was over 100 µM in each case.

For the origin of these results see PubChem BioAssay (NCI).
